Values quoted from earlier work, collected in paper PMC5689474 (Amino acids, 2010).

Experiments:
[1] = after i.c.v. and i.t. administration; ref Lipkowski et al. 1987; Horan et al. 1993
rat μ-opioid receptor = rat μ-opioid receptor (Rattus norvegicus, UniProt P33535); conditions: read-out: Binding Kiμ; [3H]DAMGO; ±SEM; ref Lipkowski et al. (1999)
[2] = tested on: δ- and μ-opioid receptors; conditions: words; ref Lipkowski et al. 1987; Horan et al. 1993
[3] = ref Horan et al. 1993; Yamazaki et al. 2001
[4] = molecular target: Mouse vas deferens (δ-opioid receptors); conditions: read-out: Functional bioactivity MVD (IC50); ±SEM; ref Lipkowski et al. (1999)
human δ-opioid receptor = human δ-opioid receptor (Homo sapiens, UniProt P41143); conditions: read-out: Binding Kiδ; [3H]DPDPE; ±SEM; ref Lipkowski et al. (1999)
Sequence of human δ-opioid receptor (P41143 whole entry): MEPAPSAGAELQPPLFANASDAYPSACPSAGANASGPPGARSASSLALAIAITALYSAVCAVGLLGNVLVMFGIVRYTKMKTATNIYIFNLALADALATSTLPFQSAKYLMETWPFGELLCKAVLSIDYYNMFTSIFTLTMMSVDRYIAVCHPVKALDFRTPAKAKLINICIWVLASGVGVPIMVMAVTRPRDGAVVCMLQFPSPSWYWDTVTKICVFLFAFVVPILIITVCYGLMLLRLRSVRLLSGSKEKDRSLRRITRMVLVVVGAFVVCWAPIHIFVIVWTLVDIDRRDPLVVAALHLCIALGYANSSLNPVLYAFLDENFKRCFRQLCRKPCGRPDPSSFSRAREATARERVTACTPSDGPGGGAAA

Sequence of rat μ-opioid receptor (P33535 whole entry): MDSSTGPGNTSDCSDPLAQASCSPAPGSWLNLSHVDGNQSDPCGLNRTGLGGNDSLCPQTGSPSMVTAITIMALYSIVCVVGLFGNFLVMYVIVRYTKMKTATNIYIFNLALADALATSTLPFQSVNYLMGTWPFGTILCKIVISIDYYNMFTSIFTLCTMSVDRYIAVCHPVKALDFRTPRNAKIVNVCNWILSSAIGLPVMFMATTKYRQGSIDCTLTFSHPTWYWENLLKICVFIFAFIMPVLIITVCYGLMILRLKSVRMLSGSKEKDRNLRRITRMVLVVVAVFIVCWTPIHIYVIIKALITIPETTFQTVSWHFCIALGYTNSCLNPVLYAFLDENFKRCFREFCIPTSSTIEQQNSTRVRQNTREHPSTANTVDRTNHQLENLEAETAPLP

Tyr-D-Ala-Gly-Phe-NH-NH\-Phe\-Gly\-D-Ala\-Tyr [Bph]
potency compared with morphine [1]: significantly higher than morphine
Ki (rat μ-opioid receptor): 1.4 ± 0.2 nM
affinity for both δ- and μ-receptors [2]: highly affinity for both δ- and μ-receptors
physical dependence compared with morphine [3]: less physical dependence than morphine
IC50 [4]: 27 ± 1.5 nM
Ki (human δ-opioid receptor): 2.6 ± 0.4 nM
